What is called IC50 is the concentration at which inhibition is half-maximal.

In one data set the test system is PC12. Nature of the data set: Inhibition of growth of tumor cells, PC12. The data set is classed as cell-based. To be noted: Rattus norvegicus, PC-12, 72 h, read-out: IC50, PC12. On the procedure:
(§1) Tumor cells (1000 cells per well) which were first treated with the corresponding compound for 3 days, and then EZMTT detection reagents were added measure the cell growth.

Another data set concerns T24 (Bladder cancer). Nature of the data set: Inhibition of growth of tumor cells, T24 bladder cancer. Type of data set: cell-based. On the procedure: as §1
In the next data set the test system is JC82. Nature of the data set: Inhibition of growth of tumor cells, JC82. The data set is classed as cell-based. To be noted: 72 h, read-out: IC50, JC82. The method, then:
as §1

Another data set has as its system PC12 cells. Nature of the data set: Protection of PC12 nerve cells under OGD (hypoxia-ischemia). The data set is classed as cell-based. The conditions noted are these: for Protection of PC12 cells under OGD: OGD hypoxia-ischemia condition. An excerpt: Then observed the growth of cellular neurite growth or neural synapse.
In the next data set the test system is T24 tumor. Nature of the data set: Subcutaneous T24 tumor model in nude mice. The data set is classed as in vivo. The conditions noted are these: immune deficient mice, 1 mg/kg subcutaneously near tumor daily, 7 days, FIG. 6. The method, then:
T24 tumor cells (1,000,000) were inoculated in nude mice, and the tumor size was 10 mm×10 mm in 24th to 27th day. Then compound hexane-(3,3′-dimethyl) thioether selen in PBS solution (200 μl) was injected subcutaneously every day near the tumor with the dosage of 1 mg/kg.

In a further data set the test system is A549 tumor. Nature of the data set: Subcutaneous A549 tumor model in nude mice. The data set is classed as in vivo. To be noted: immune deficient mice, 1 mg/kg subcutaneously near tumor daily, 7 days, FIG. 5. The method, then:
A549 tumor cells (1,000,000) were inoculated in nude mice, and the tumor size was 10 mm×10 mm in 24th to 27th day. Then compound hexane-(3,3′-dimethyl) thioether selen in PBS solution (200 μl) was injected subcutaneously every day near the tumor with the dosage of 1 mg/kg.

Another data set concerns Caki. Nature of the data set: Inhibition of growth of tumor cells, Caki. To be noted: 72 h, read-out: IC50, Caki. Type of data set: cell-based. On the procedure:
as §1

For the next data set, the system named is PC3. Nature of the data set: Inhibition of growth of tumor cells, PC3. Type of data set: cell-based. The conditions noted are these: Homo sapiens, PC-3, 72 h, read-out: IC50, PC3. The method, then: as §1
A further data set relates to L2 (Normal cell). Nature of the data set: Growth inhibition of L2 normal cells. The data set is classed as cell-based. The method, then:
as §1

Another data set has as its system A549. Nature of the data set: Inhibition of growth of tumor cells, A549. Type of data set: cell-based. The conditions noted are these: Homo sapiens, read-out: IC50, A549. The method, then: as §1
For data set [1], the target named is T1, KGA (Homo sapiens, UniProt O94925).
T1 sequence (O94925 55-669): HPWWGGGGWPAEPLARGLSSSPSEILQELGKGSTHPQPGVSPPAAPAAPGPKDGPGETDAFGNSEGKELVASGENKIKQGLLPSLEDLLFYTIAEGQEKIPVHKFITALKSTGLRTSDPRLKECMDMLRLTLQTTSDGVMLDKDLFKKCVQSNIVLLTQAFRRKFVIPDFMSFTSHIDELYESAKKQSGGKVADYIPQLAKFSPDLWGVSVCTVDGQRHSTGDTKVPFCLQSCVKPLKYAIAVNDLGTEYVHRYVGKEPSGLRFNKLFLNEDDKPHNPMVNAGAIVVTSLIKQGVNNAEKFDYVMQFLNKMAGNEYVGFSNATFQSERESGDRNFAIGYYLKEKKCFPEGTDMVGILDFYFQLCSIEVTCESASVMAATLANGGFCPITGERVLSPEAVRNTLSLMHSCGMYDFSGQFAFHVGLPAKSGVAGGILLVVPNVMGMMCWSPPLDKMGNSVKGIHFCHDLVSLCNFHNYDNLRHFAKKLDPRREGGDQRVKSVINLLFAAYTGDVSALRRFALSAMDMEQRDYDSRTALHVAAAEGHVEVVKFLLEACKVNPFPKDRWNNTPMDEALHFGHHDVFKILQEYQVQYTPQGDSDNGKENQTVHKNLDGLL
Nature of the data set: Binding to immobilized KGA by molecular interaction apparatus (ForteBio). The conditions noted are these: KGA immobilized on ForteBio chip. An excerpt: We suspected that ebselen may not inhibit glutaminase. […] Therefore, based on the crystal structure of the allosteric site of glutaminase, we synthesized a series of new symmetric and asymmetric ebselen derivatives with the aim to make an ebselen derived KGA inhibitor. In the derivatives, the benzene ring at the 2-position of the original ebselen molecule was replaced by a straight-chain or branched alkyl substituent containing at least one carbon atom, or a long chain containing thioether, or a smaller cycloalkyl group, and the newly obtained derivatives are effective in binding to the allosteric site of glutaminase. […] Moreover, these inhibitors that bind the allosteric site of glutaminase had good selectivity and higher potency for inhibition of tumor cell growth (<100 nM), and no damage to normal cells (10 μM). These inhibitors also had significant activity in an immunodeficient mouse model with no toxicity. These inhibitors had good inhibitory activity for various types of glutamine-dependent cancer cells (80-90%), especially urinary system tumors. The binding diagram of GAC tetramers and BPTES is shown in FIG. 1, wherein “mark 1” is the active site of substrate binding; and “mark 2” is an allosteric site for BPTES binding.
Our Papers published are Anal. Chem. 2017, 89: 1689, ACS Chemical Biology, 2017, 12:3003

A further data set concerns TrxR. To be noted: reported; cited from earlier work.
Data set [2] concerns normal cells. Nature of the data set: Toxicity to normal cells.
For data set [3], the target named is T1, KGA. Nature of the data set: Inhibition of KGA (glutaminase). The data set is classed as biochemical.
The test system of data set [4] is glutamine dependent cancer cell. To be noted: reported; read-out: Inhibiting glutamine dependent cancer cell growth IC50; cited from earlier work.
The next data set has as its target T2, glutaminase (Homo sapiens, UniProt O94925).
T2 sequence (O94925 55-669): T1 sequence (O94925 55-669)
To be noted: reported; read-out: Glutaminase inhibitor IC50; cited from earlier work.

Data set [5] has as its system normal cells.
Setting [6] is: Homo sapiens, T-24, 72 h, read-out: IC50, T24.
[7] abbreviates: 72 h, read-out: IC50, L2 (Normal).
Setting [8] is: bladder cancer cell line table, read-out: T24 (Bladder cancer) IC50.
Setting [9] is: bladder cancer cell line table, read-out: L2 (Normal cell) IC50.

Entries after “also recorded” stand apart in the source; their conditions may differ. Like-named read-outs stand apart in the source and are kept apart here.

Consider `O=c1c2ccccc2[se]n1CCCSCCCn1[se]c2ccccc2c1=O` [Thioether selen], for which the IC50 with PC12 is 5000 nM; with T24 (Bladder cancer) (setting [6]), 500 nM; in the data set with JC82 it was 5000 nM; with Caki, 1000 nM; with PC3 it was 2000 nM; in the data set on L2 (Normal cell) (setting [7]), greater than 10000 nM. Further, the IC50 in the data set with A549 (A549, 72 h) stood at 500 nM. The “Protection of PC12 neuronal cells under OGD condition” value in the data set on PC12 cells (words, FIG. 7) is “protection of PC12 neuronal cells”. For the same compound, the “Inhibition of growth of T24 tumor” value in the data set with T24 tumor is “inhibition of the growth of the T24 tumor cells”. Further, the “Inhibition of growth of A549 tumor” value in the data set with A549 tumor is reported as “inhibition of the growth of the A549 tumor”.
For `Cc1cccc2[se]n(CCCCCCn3[se]c4cccc(C)c4c3=O)c(=O)c12` [Hexane-(3,3'-dimethyl) selen, Hexane-(3,3′-dimethyl) selen], the IC50 is 5000 nM in the data set on PC12; 200 nM in the data set with T24 (Bladder cancer) (setting [6]); 5000 nM in the data set with JC82; 1000 nM in the data set with Caki; 2000 nM with PC3; greater than 10000 nM in the data set with L2 (Normal cell) (setting [7]). Moreover, the IC50 with A549 (A549, 72 h) came out at 500 nM. In addition, the “Binding to KGA / glutaminase” value on KGA [1] was “distinct levels of combination with KGA enzyme”.
Turning to `O=c1c2ccccc2[se]n1-c1ccccc1` [Ebselen, 2-phenylbenzoisoselenazol-3-one, reference compound], the IC50 in the data set on PC12 (PC12 cells, 3 days treatment) was greater than 10000 nM; in the data set with T24 (Bladder cancer) (Homo sapiens, T-24, 72 h, T24 cells, 3 days treatment, comparison with parent nucleus, read-out: IC50, T24) it was greater than 10000 nM; with T24 (Bladder cancer) (setting [8]), greater than 10000 nM; in the data set on JC82 (JC82 cells, 3 days treatment) it was greater than 10000 nM; with Caki (Caki cells, 3 days treatment) it was greater than 10000 nM; in the data set on PC3 (PC3 cells, 3 days treatment), greater than 10000 nM. The IC50 in the data set on L2 (Normal cell) (72 h, L2 normal cells, 3 days treatment, read-out: IC50, L2 (Normal)) was greater than 10000 nM; in the data set on L2 (Normal cell) (setting [9]), greater than 10000 nM; in [4], 20000 nM; on glutaminase, 9 nM; in the data set on A549 (72 h, A549 cells, 3 days treatment) it was greater than 10000 nM. In the data set on TrxR, the “Inhibition of TrxR” value is given as “strong inhibitors of TrxR”. For the same compound, the “Protection of PC12 cells under OGD” value with PC12 cells turned out to be 1000 nM. Also, the “Toxicity to normal cells” value in the data set on normal cells [2] was “toxic to the normal cells”. For the same compound, on KGA [3], the “Inhibition of KGA” value is listed as “do not inhibit KGA”. Also, on KGA [1], the “Binding to KGA / glutaminase” value was “not bound to the KGA; also recorded: cannot directly combine toglutaminase”.
Consider `O=c1c2c(F)cccc2[se]n1CCCCCCn1[se]c2cccc(F)c2c1=O` [Hexane-(2,2'-difluoro) selen, Hexane-(2,2′-difluoro) selen], for which the IC50 in the data set on PC12 was 5000 nM; in the data set on T24 (Bladder cancer) (setting [6]) it was 10 nM; in the data set with JC82, 2000 nM; in the data set with Caki it was 1000 nM; in the data set with PC3 it was 2000 nM; in the data set with L2 (Normal cell) (setting [7]), greater than 10000 nM. Moreover, in the data set with A549 (A549, 72 h), the IC50 was determined as 500 nM.
As for `O=c1c2ccccc2[se]n1CCn1[se]c2ccccc2c1=O` [ethylselen], the “Toxicity to normal cells” value in the data set with normal cells [5] was “toxic to the normal cells”. Further, the “Inhibition of TrxR” value with TrxR is on record as “strong inhibitors of TrxR”. Also, at KGA [3], the “Inhibition of KGA” value is recorded as “do not inhibit KGA”.
`O=c1c2ccccc2[se]n1CCCCCCn1[se]c2c(F)cccc2c1=O` [Hexane - (2'-fluoro) selen, Hexane-(2′-fluoro) selen]: the IC50 in the data set on T24 (Bladder cancer) (read-out: T24 (Bladder cancer) IC50) is 200 nM; with L2 (Normal cell) (read-out: L2 (Normal cell) IC50), greater than 10000 nM. In addition, in the data set with PC12 cells, the “Protection of PC12 cells under OGD” value is recorded as less than 100 nM.
As for “1,6- tert butyl carbonate hexamethylendiamineselen”, the IC50 is 10000 nM in the data set with T24 (Bladder cancer) (setting [8]) and greater than 10000 nM in the data set with L2 (Normal cell) (setting [9]). Further, in the data set with PC12 cells, the “Protection of PC12 cells under OGD” value is less than 100 nM.

The record behind these values is patent US10596152B2, “Selenium containing KGA/GDH dual inhibitors and the applications thereof” (HANGZHOU GAMMA BIOTECH CO., LTD., priority 2015, dated 2020).
